Results from PMC11111691, “Cystine-knot peptide inhibitors of HTRA1 bind to a cryptic pocket within the active site region” (Nature Communications, 2024).
Positions of bridges follow the written chain, without caps; N, C: chain ends. Residues, ends and D or L forms follow the SMILES beside them.

How the values were obtained:
HTRA1^PD(SA) = molecular target: T1, HTRA1^PD(SA) (Homo sapiens, UniProt Q92743, S328A); assay: SPR binding kinetics to HTRA1^PD(SA); details: mean ± S.D. of three or more independent experiments; for koff / kon: SPR Biacore S200, 25 °C, single cycle kinetics, 1:1 Langmuir model; for Kd: SPR, calculated from kon and koff, CPI up to 10 µM
T1 construct: The protease domains of human HTRA1 (HTRA1^PD; D161-K379); made in house; host or cells: E. coli
T1 sequence (Q92743 161-379 S328A): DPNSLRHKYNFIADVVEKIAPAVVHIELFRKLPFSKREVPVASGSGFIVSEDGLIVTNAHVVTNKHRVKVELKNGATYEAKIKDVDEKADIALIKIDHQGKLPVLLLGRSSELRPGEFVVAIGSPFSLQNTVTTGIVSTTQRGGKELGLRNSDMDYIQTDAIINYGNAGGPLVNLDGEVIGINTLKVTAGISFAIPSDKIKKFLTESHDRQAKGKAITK
Method: Surface plasmon resonance (SPR) experiments were performed using a Biacore S200 instrument at 25 °C. His-tagged HTRA proteins were captured on a CM5 sensor chip using the His-capture kit (GE Healthcare). Protein concentrations used for immobilization were as follows; HTRA1^PD(SA), HTRA1^PD and HTRA1^PD-ABP 2 µg/ml with 60-s injections at 10 µl/min, HTRA2^PD/PDZ, HTRA3^PD/PDZ, and HTRA4^PD/PDZ 4 µg/ml with 60-s injections at 10 µl/min. Approximate immobilization levels of HTRA proteins were as follows; HTRA1^PD(SA) 700 RU, HTRA1^PD 900 RU, HTRA1^PD-ABP 900 RU, HTRA2^PD/PDZ 500 RU, HTRA3^PD/PDZ 500 RU, HTRA4^PD/PDZ 500 RU. All CKPs were prepared in HBS-EP buffer (0.01 M HEPES pH 7.4, 0.15 M NaCl, 3 mM EDTA, 0.005% v/v Surfactant P20). All CKP concentrations were injected for 120 s at a flow rate of 30 μl/min. A reference channel was subtracted from the HTRA-captured channel.
Binding kinetics of peptides to HTRA1^PD(SA) were determined by flowing six serial three-fold dilutions of peptide over the HTRA1^PD(SA) immobilized surface using a single cycle kinetics model. CKP maximum concentrations were as follows: 1A7, 1A8, 1C10, 2D5, and 3A7, 300 nM; 1G10-ENI and 1D3-ENI, 100 nM; 3B3, 3000 nM; and CPI, 10,000 nM. Data were analyzed using GE BIA evaluation software using a 1:1 Langmuir binding model. The KD values, calculated from the determined kon and koff values, were the mean ± S.D. of 3–4 independent experiments.

HTRA1^FL = molecular target: T2, HTRA1^FL (Homo sapiens, UniProt Q92743); assay: HTRA1^FL enzyme inhibition assay with synthetic substrate H2-OPT; assay type: biochemical
T2 construct: Human full-length HTRA1 (HTRA1^FL, Q23-P480); made in house; host or cells: Trichoplusia ni cells
T2 sequence (Q92743 23-480): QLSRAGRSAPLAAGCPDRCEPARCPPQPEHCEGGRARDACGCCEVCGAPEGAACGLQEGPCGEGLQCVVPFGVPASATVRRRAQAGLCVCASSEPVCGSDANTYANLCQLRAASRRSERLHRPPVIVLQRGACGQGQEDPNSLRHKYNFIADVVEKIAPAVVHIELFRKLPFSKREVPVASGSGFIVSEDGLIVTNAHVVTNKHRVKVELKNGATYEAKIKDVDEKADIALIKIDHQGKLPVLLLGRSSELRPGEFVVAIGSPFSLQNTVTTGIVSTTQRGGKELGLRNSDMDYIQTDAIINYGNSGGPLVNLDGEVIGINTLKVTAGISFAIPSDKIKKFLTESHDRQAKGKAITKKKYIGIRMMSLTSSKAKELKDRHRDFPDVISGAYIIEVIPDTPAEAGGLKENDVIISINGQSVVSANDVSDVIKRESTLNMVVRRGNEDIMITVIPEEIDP
Method: Assays with the fluorescence-quenched synthetic substrate Mca-IRRVSYSFK(Dnp)K (H2-OPT)[38],[60] were carried out essentially as described. CKP stock solutions in DMSO were diluted in TNC buffer (dilution series for IC50 determinations, or final concentration of 2 µM for selectivity assay or as indicated for HTRA1/4 mutants) and incubated with enzymes in 96-well black optical bottom plates for 60 min at 37 °C. For selectivity experiments we used the 7mer-ABP as inhibitor, which was incubated with the proteases for 15 min at 37 °C. A 10 mM stock solution of H2-OPT in DMSO was diluted with water, prewarmed at 37 °C and then added to the CKP-enzyme mixtures. The final concentrations in the reaction mixtures were: 1 nM HTRA1^FL, 3 nM HTRA1^PD/PDZ, 1 nM HTRA1^PD, 1 nM HTRA2^PD/PDZ, 3 nM HTRA3^FL, 60 nM HTRA3^PD/PDZ, 6 nM HTRA4^FL, 1 µM HTRA4^PD/PDZ, 1 nM mouse HTRA1^PD, 25 nM HTRA1^PD-A202Y, 1 µM HTRA4^PD/PDZ-Y200A, 0.5 mM 7mer-ABP, 5 µM H2-OPT, and 0.25% DMSO. The kinetics of substrate cleavage was measured at 37 °C on a SpectraMax M5 microplate reader with excitation of 328 nm and emission of 393 nm. The determined initial rates of cleavage were expressed as percent of control (DMSO control) after subtracting the baseline rates (without enzyme). IC50 values were determined by Sigmoidal 4PL modeling of multiple data points from serial dilutions of CKPs using Prism 9 software (GraphPad). For selectivity assays with HTRA1-4^PD/PDZ constructs, the specific activities of the enzymes and enzyme:CKP inhibitor ratios were as follows: HTRA1^PD/PDZ, 12560 mRFU/min/nM – 1:667; HTRA2^PD/PDZ, 32300 mRFU/min/nM – 1:2000; HTRA3^PD/PDZ, 962 mRFU/min/nM – 1:33; HTRA4^PD/PDZ, 18 mRFU/min/nM – 1:2.

CC[C@H](C)[C@H](NC(=O)[C@@H]1CCCN1C(=O)[C@H](CC(=O)O)NC(=O)[C@H](C)NC(=O)[C@@H](N)Cc1c[nH]cn1)C(=O)N[C@H]1CSSC[C@@H]2NC(=O)[C@H](Cc3ccccc3)NC(=O)[C@H](Cc3c[nH]c4ccccc34)NC(=O)[C@H](C)NC(=O)CNC(=O)[C@H](CO)NC(=O)[C@@H]3CSSC[C@@H](C(=O)NCC(=O)N4CCC[C@H]4C(=O)NCC(=O)N[C@@H](Cc4c[nH]c5ccccc45)C(=O)N[C@@H](CCCNC(=N)N)C(N)=O)NC(=O)[C@H](CO)NC(=O)[C@H](Cc4c[nH]c5ccccc45)NC(=O)[C@H]([C@@H](C)O)NC(=O)[C@H](C)NC(=O)[C@H](Cc4ccc(O)cc4)NC(=O)[C@H](Cc4ccc(O)cc4)NC(=O)[C@H](CSSC[C@H](NC(=O)[C@@H]4CCCN4C(=O)[C@H](CCCCN)NC(=O)[C@H](CC(N)=O)NC1=O)C(=O)N[C@@H](CCCCN)C(=O)N[C@@H]([C@@H](C)O)C(=O)N[C@@H](Cc1c[nH]cn1)C(=O)N[C@@H](CC(=O)O)C(=O)N[C@@H](CC(=O)O)C(=O)N3)NC(=O)[C@H](C)NC(=O)[C@H](CCC(N)=O)NC2=O [1A7] (H-HADPICNKPCKTHDDCSGAWFCQACYYATWSCGPGWR-NH2; disulfide 6-22, 10-25, 16-32)
koff (HTRA1^PD(SA)): 6.5 ± 0.7 s-1 x10-4 | kon (HTRA1^PD(SA)): 9.4 ± 1.3 M-1 s-1 x104 | Kd (HTRA1^PD(SA)): 7 ± 0.5 nM

CC[C@H](C)[C@H](NC(=O)[C@H](CCC(N)=O)NC(=O)[C@H](CCCNC(=N)N)NC(=O)[C@H](CC(C)C)NC(=O)CNC(=O)[C@H](Cc1c[nH]c2ccccc12)NC(=O)CNC(=O)[C@@H]1CSSC[C@@H]2NC(=O)[C@H](CC(=O)O)NC(=O)[C@H](CC(=O)O)NC(=O)[C@H](Cc3c[nH]cn3)NC(=O)[C@H]([C@@H](C)O)NC(=O)[C@H](CC(=O)O)NC(=O)[C@@H]3CSSC[C@H](NC(=O)[C@H]([C@@H](C)O)NC(=O)[C@H](CCC(N)=O)NC(=O)[C@H](CSSC[C@H](NC(=O)[C@@H](NC(=O)[C@@H]4CCCN4C(=O)[C@H](CC(=O)O)NC(=O)[C@H](C)NC(=O)[C@@H](N)Cc4c[nH]cn4)[C@@H](C)CC)C(=O)N[C@@H](CC(N)=O)C(=O)N[C@@H](CCCCN)C(=O)N4CCC[C@H]4C(=O)N3)NC(=O)[C@H](Cc3ccccc3)NC(=O)[C@H](Cc3c[nH]c4ccccc34)NC(=O)[C@H](C)NC(=O)CNC(=O)[C@H](CO)NC2=O)C(=O)N[C@@H](Cc2ccc(O)cc2)C(=O)N[C@@H](Cc2ccc(O)cc2)C(=O)N[C@@H](C)C(=O)N[C@@H]([C@@H](C)O)C(=O)N[C@@H](Cc2c[nH]c3ccccc23)C(=O)N[C@@H](CO)C(=O)N1)C(=O)N[C@@H](CC(=O)O)C(N)=O [1A8.K11D] (H-HADPICNKPCDTHDDCSGAWFCQTCYYATWSCGWGLRQID-NH2; disulfide 6-22, 10-25, 16-32)
IC50 (HTRA1^FL): 1.2 ± 0.4 nM

CC[C@H](C)[C@H](NC(=O)[C@@H]1CCCN1C(=O)[C@H](CC(=O)O)NC(=O)[C@H](C)NC(=O)[C@@H](N)Cc1c[nH]cn1)C(=O)N[C@H]1CSSC[C@@H]2NC(=O)[C@H](Cc3ccccc3)NC(=O)[C@H](Cc3c[nH]c4ccccc34)NC(=O)[C@H](C)NC(=O)CNC(=O)[C@H](CO)NC(=O)[C@@H]3CSSC[C@@H](C(=O)NCC(=O)N4CCC[C@H]4C(=O)NCC(=O)N[C@@H](CCCNC(=N)N)C(=O)N[C@@H](Cc4ccc(O)cc4)C(N)=O)NC(=O)[C@H](CO)NC(=O)[C@H](Cc4c[nH]c5ccccc45)NC(=O)[C@H]([C@@H](C)O)NC(=O)[C@H](C)NC(=O)[C@H](Cc4ccc(O)cc4)NC(=O)[C@H](Cc4ccc(O)cc4)NC(=O)[C@H](CSSC[C@H](NC(=O)[C@@H]4CCCN4C(=O)[C@H](CCCCN)NC(=O)[C@H](CC(N)=O)NC1=O)C(=O)N[C@@H](CCCCN)C(=O)N[C@@H]([C@@H](C)O)C(=O)N[C@@H](Cc1c[nH]cn1)C(=O)N[C@@H](CC(=O)O)C(=O)N[C@@H](CC(=O)O)C(=O)N3)NC(=O)[C@H](C)NC(=O)[C@H](CCC(N)=O)NC2=O [1C10] (H-HADPICNKPCKTHDDCSGAWFCQACYYATWSCGPGRY-NH2; disulfide 6-22, 10-25, 16-32)
koff (HTRA1^PD(SA)): 4.7 ± 0.1 s-1 x10-4 | kon (HTRA1^PD(SA)): 7.7 ± 2.4 M-1 s-1 x104 | Kd (HTRA1^PD(SA)): 6.5 ± 2.2 nM

CC[C@H](C)[C@H](NC(=O)[C@@H]1CCCN1C(=O)[C@H](CC(=O)O)NC(=O)[C@H](C)NC(=O)[C@@H](N)Cc1c[nH]cn1)C(=O)N[C@H]1CSSC[C@@H]2NC(=O)[C@H](Cc3ccccc3)NC(=O)[C@H](Cc3c[nH]c4ccccc34)NC(=O)[C@H](C)NC(=O)CNC(=O)[C@H](CO)NC(=O)[C@@H]3CSSC[C@@H](C(=O)N[C@@H](CCC(N)=O)C(=O)N[C@@H](Cc4c[nH]c5ccccc45)C(=O)N4CCC[C@H]4C(=O)N4CCC[C@H]4C(=O)N[C@@H](CCCNC(=N)N)C(=O)N[C@@H](Cc4c[nH]cn4)C(=O)N[C@@H](CCCNC(=N)N)C(=O)N[C@@H](CC(=O)O)C(N)=O)NC(=O)[C@H](CO)NC(=O)[C@H](Cc4c[nH]c5ccccc45)NC(=O)[C@H]([C@@H](C)O)NC(=O)[C@H](C)NC(=O)[C@H](Cc4ccc(O)cc4)NC(=O)[C@H](Cc4ccc(O)cc4)NC(=O)[C@H](CSSC[C@H](NC(=O)[C@@H]4CCCN4C(=O)[C@H](CCCCN)NC(=O)[C@H](CC(N)=O)NC1=O)C(=O)N[C@@H](CCCCN)C(=O)N[C@@H]([C@@H](C)O)C(=O)N[C@@H](Cc1c[nH]cn1)C(=O)N[C@@H](CC(=O)O)C(=O)N[C@@H](CC(=O)O)C(=O)N3)NC(=O)[C@H]([C@@H](C)O)NC(=O)[C@H](CCC(N)=O)NC2=O [2D5] (H-HADPICNKPCKTHDDCSGAWFCQTCYYATWSCQWPPRHRD-NH2; disulfide 6-22, 10-25, 16-32)
koff (HTRA1^PD(SA)): 1.0 ± 0.1 s-1 x10-4 | kon (HTRA1^PD(SA)): 10.5 ± 0.9 M-1 s-1 x104 | Kd (HTRA1^PD(SA)): 0.94 ± 0.12 nM

CC[C@H](C)[C@H](NC(=O)[C@@H]1CCCN1C(=O)[C@H](CC(=O)O)NC(=O)[C@H](C)NC(=O)[C@@H](N)Cc1c[nH]cn1)C(=O)N[C@H]1CSSC[C@@H]2NC(=O)[C@H](Cc3ccccc3)NC(=O)[C@H](Cc3c[nH]c4ccccc34)NC(=O)[C@H](C)NC(=O)CNC(=O)[C@H](CO)NC(=O)[C@@H]3CSSC[C@@H](C(=O)NCC(=O)N4CCC[C@H]4C(=O)N[C@@H](Cc4ccc(O)cc4)C(=O)N[C@H](C(=O)NCC(N)=O)C(C)C)NC(=O)[C@H](CCCNC(=N)N)NC(=O)[C@H](Cc4c[nH]c5ccccc45)NC(=O)[C@H](CC(N)=O)NC(=O)[C@H](C)NC(=O)[C@H](Cc4ccccc4)NC(=O)[C@H](Cc4ccc(O)cc4)NC(=O)[C@H](CSSC[C@H](NC(=O)[C@@H]4CCCN4C(=O)[C@H](CCCCN)NC(=O)[C@H](CC(N)=O)NC1=O)C(=O)N[C@@H](CCCCN)C(=O)N[C@@H]([C@@H](C)O)C(=O)N[C@@H](Cc1c[nH]cn1)C(=O)N[C@@H](CC(=O)O)C(=O)N[C@@H](CC(=O)O)C(=O)N3)NC(=O)[C@H](C)NC(=O)[C@H](CCC(N)=O)NC2=O [3A7] (H-HADPICNKPCKTHDDCSGAWFCQACYFANWRCGPYVG-NH2; disulfide 6-22, 10-25, 16-32)
koff (HTRA1^PD(SA)): 2.8 ± 0.2 s-1 x10-4 | kon (HTRA1^PD(SA)): 4.5 ± 0.3 M-1 s-1 x104 | Kd (HTRA1^PD(SA)): 6.2 ± 0.2 nM
